Test results reported in ChEMBL document CHEMBL4808206, “Novel Substituted 3,4-Dihydroquinazoline Derivatives for Treating Hepatitis B Virus Infection” (ACS Med Chem Lett, 2021).

Each molecule was assayed on Hepatitis B virus (assay: Antiviral activity against HBV infected in human HepDES19 cells assessed as reduction in HBV cccDNA production by measuring inhibition of HBeAg secretion incubated for 5 days by ELISA). Settings: HepDES19, 120 h.
Format: functional, organism-based

IC50 [nM] | Compound
70 | NC(=O)C1NC(c2ccc(Br)cc2)=Nc2c(Cl)cccc21 (stereo unspecified)
130 | CC1(C(=O)O)NC(c2ccc(Br)cc2)=Nc2c(Cl)cccc21 (stereo unspecified)
50 | O=C(O)C1NC(c2ccc(N3CCCC3)nc2)=Nc2c(Cl)cccc21 (stereo unspecified)
330 | COC(=O)C1NC(c2ccc(Br)cc2)=Nc2c(Cl)cccc21 (stereo unspecified)

The next lines start with the molecule.

Compound | IC50 [nM]
COc1ccc2c(c1)CCN(C1=Nc3c(Cl)cccc3C(C)N1)C2=O (stereo unspecified) | 27
NC(=O)C1NC(c2cccc(Br)c2)=Nc2cc(C(F)(F)F)ccc21 (stereo unspecified) | 260
